Assay results from patent publication US20260232767A1, “INTERLEUKIN-23 RECEPTOR ANTAGONIST PEPTIDES FOR USE IN THE TREATMENT OF PSORIASIS” (Janssen Pharmaceutica NV, priority 2023, published 2026).

System: subjects with moderate-to-severe plaque psoriasis
Experiment: PASI response, Example 2 long-term extension to Week 52
Format: in vivo, human
Conditions: for Change from Baseline in PASI Total Score, LSMean: MMRM model
Description: Described below is a multicenter, long-term extension (LTE), double-blind, dose-ranging, parallel group interventional study in participants from Example 1 to evaluate the long-term efficacy and safety of the hydrochloride salt of the compound of Formula (I) for the treatment of moderate-to-severe plaque psoriasis. Patients from Example 1 continued to receive the same dose of the compound of Formula (I) for an additional 36-week treatment period with a 4-week safety follow up period after the last administration of the compound of Formula (I). Patients randomized to placebo in Example 1 received the compound of Formula (I) at a dose of 100 mg QD starting at Week 16 of Example 1 (FIG. 21).
The primary efficacy endpoint is the proportion of participants achieving a PASI 75 response at Week 52, defined as at least a […] reduction from baseline PASI of Example 1. For primary analysis, composite strategy (non-responder imputation) was applied to address intercurrent event #1 (Discontinuation of study intervention due to lack of efficacy or due to an AE of worsening of psoriasis) and […] (initiation of a protocol-prohibited medication or therapy that could improve psoriasis); treatment policy strategy (observed data) was applied to intercurrent event #3 (Discontinuation of study intervention due to other reasons). Participants with missing data after application of ICEs are considered as non-responders.
Since there was no control arm (after week 16), in this primary analysis, only the proportion of participants who achieved a PASI75 response and its […] confidence interval at Week 52 were summarized for each intervention group.

[1] = 50 mg QD, Week 52, non-responder imputation

CC(=O)NCCCC[C@@H]1NC(=O)[C@H](Cc2c[nH]c3c(C)cccc23)NC(=O)[C@H]([C@@H](C)O)NC(=O)[C@H](CC(N)=O)NC(=O)[C@@H](NC(C)=O)C(C)(C)SSC(C)(C)[C@@H](C(=O)N[C@@H](Cc2ccc(OCCN)cc2)C(=O)N[C@@H](Cc2ccc3ccccc3c2)C(=O)NC2(C(=O)N[C@@H](CCC(=O)O)C(=O)N[C@@H](CC(N)=O)C(=O)N[C@@H](Cc3cccnc3)C(=O)N(C)CC(N)=O)CCOCC2)NC1=O [IL-23 receptor antagonist peptide, Ac-[Pen]*-N-T-[W(7-Me)]-[Lys(Ac)]-[Pen]*-Phe[4-(2-aminoethoxy)]-[2-Nal]-[THP]-E-N-[3-Pal]-Sarc-NH2 (*[Pen]-[Pen]* formdisulfidebond)]
Change from Baseline in PASI Total Score, Median (50 mg QD, Week 16): −14.90
Change from Baseline in PASI Total Score, LSMean (50 mg QD, Week 16): −14.4
Change from Baseline in PASI Total Score, Mean (50 mg QD, Week 20): −14.92
Change from Baseline in PASI Total Score, Median (50 mg QD, Week 20): −15.10
Change from Baseline in PASI Total Score, LSMean (50 mg QD, Week 20): −14.7
Change from Baseline in PASI Total Score, Mean (50 mg QD, Week 24): −15.10
Change from Baseline in PASI Total Score, Median (50 mg QD, Week 24): −15.70
Change from Baseline in PASI Total Score, LSMean (50 mg QD, Week 24): −14.9
Change from Baseline in PASI Total Score, Mean (50 mg QD, Week 28): −14.75
Change from Baseline in PASI Total Score, Median (50 mg QD, Week 28): −15.50
Change from Baseline in PASI Total Score, LSMean (50 mg QD, Week 28): −14.6
Change from Baseline in PASI Total Score, Mean (50 mg QD, Week 32): −14.88
Change from Baseline in PASI Total Score, Median (50 mg QD, Week 32): −15.80
Change from Baseline in PASI Total Score, LSMean (50 mg QD, Week 32): −14.6
Change from Baseline in PASI Total Score, Mean (50 mg QD, Week 40): −14.33
Change from Baseline in PASI Total Score, Median (50 mg QD, Week 40): −15.45
Change from Baseline in PASI Total Score, LSMean (50 mg QD, Week 40): −14.2
Change from Baseline in PASI Total Score, Mean (50 mg QD, Week 52): −14.45
Change from Baseline in PASI Total Score, Median (50 mg QD, Week 52): −15.80
Subjects achieving PASI 75 (50 mg QD, Week 52): 30 (69.8%)
Change from Baseline in PASI Total Score, LSMean (50 mg QD, Week 52): −14.3
Subjects achieving 100% Improvement at Week 52 (PASI) [1]: (20.9%)
Subjects achieving ≥75% Improvement at Week 52 (PASI 75 Response) [1]: 30 (69.8%)
Subjects achieving ≥90% Improvement at Week 52 (PASI) [1]: (41.9%)
Change from Baseline in PASI Total Score, Mean (100 mg BID, Week 1): −3.25
Change from Baseline in PASI Total Score, Median (100 mg BID, Week 1): −1.20
Change from Baseline in PASI Total Score, LSMean (100 mg BID, Week 1): −2.9
Change from Baseline in PASI Total Score, Mean (100 mg BID, Week 2): 6.07
Change from Baseline in PASI Total Score, Median (100 mg BID, Week 2): −4.85
Change from Baseline in PASI Total Score, LSMean (100 mg BID, Week 2): −5.7
Change from Baseline in PASI Total Score, Mean (100 mg BID, Week 4): −10.71
Change from Baseline in PASI Total Score, Median (100 mg BID, Week 4): −9.70
Change from Baseline in PASI Total Score, LSMean (100 mg BID, Week 4): −10.0
Change from Baseline in PASI Total Score, Mean (100 mg BID, Week 8): −14.66
Change from Baseline in PASI Total Score, Median (100 mg BID, Week 8): −13.30
Change from Baseline in PASI Total Score, LSMean (100 mg BID, Week 8): −13.8
Change from Baseline in PASI Total Score, Mean (100 mg BID, Week 12): −16.77
Change from Baseline in PASI Total Score, Median (100 mg BID, Week 12): −17.05
Change from Baseline in PASI Total Score, LSMean (100 mg BID, Week 12): −15.9
Change from Baseline in PASI Total Score, Mean (100 mg BID, Week 16): −17.44
Change from Baseline in PASI Total Score, Median (100 mg BID, Week 16): −17.40
Change from Baseline in PASI Total Score, LSMean (100 mg BID, Week 16): −16.5
Change from Baseline in PASI Total Score, Mean (100 mg BID, Week 20): −17.83
Change from Baseline in PASI Total Score, Median (100 mg BID, Week 20): −17.40
Change from Baseline in PASI Total Score, LSMean (100 mg BID, Week 20): −17.0
Change from Baseline in PASI Total Score, Mean (100 mg BID, Week 24): −17.99
Change from Baseline in PASI Total Score, Median (100 mg BID, Week 24): −17.80
Change from Baseline in PASI Total Score, LSMean (100 mg BID, Week 24): −17.1
Change from Baseline in PASI Total Score, Mean (100 mg BID, Week 28): −17.96
Change from Baseline in PASI Total Score, Median (100 mg BID, Week 28): −17.75
Change from Baseline in PASI Total Score, LSMean (100 mg BID, Week 28): −17.2
Change from Baseline in PASI Total Score, Mean (100 mg BID, Week 32): −18.37
Change from Baseline in PASI Total Score, Median (100 mg BID, Week 32): −18.20
Change from Baseline in PASI Total Score, LSMean (100 mg BID, Week 32): −17.3
Change from Baseline in PASI Total Score, Mean (100 mg BID, Week 40): −18.30
Change from Baseline in PASI Total Score, Median (100 mg BID, Week 40): −18.30
Change from Baseline in PASI Total Score, LSMean (100 mg BID, Week 40): −17.4
Change from Baseline in PASI Total Score, Mean (100 mg BID, Week 52): −18.46
Change from Baseline in PASI Total Score, Median (100 mg BID, Week 52): −18.60
Subjects achieving PASI 75 (100 mg BID, Week 52): 32 (76.2%)
Change from Baseline in PASI Total Score, LSMean (100 mg BID, Week 52): −17.4
Subjects achieving ≥75% Improvement at Week 52 (PASI 75 Response) (100 mg BID, Week 52, non-responder imputation): 32 (76.2%)
Change from Baseline in PASI Total Score, Mean (100 mg QD, Week 1): −2.60
Change from Baseline in PASI Total Score, Median (100 mg QD, Week 1): −1.10
Change from Baseline in PASI Total Score, LSMean (100 mg QD, Week 1): −2.8
Change from Baseline in PASI Total Score, Mean (100 mg QD, Week 2): −5.13
Change from Baseline in PASI Total Score, Median (100 mg QD, Week 2): −3.25
Change from Baseline in PASI Total Score, LSMean (100 mg QD, Week 2): −5.3
Change from Baseline in PASI Total Score, Mean (100 mg QD, Week 4): −8.39
Change from Baseline in PASI Total Score, Median (100 mg QD, Week 4): −7.30
Change from Baseline in PASI Total Score, LSMean (100 mg QD, Week 4): −8.7
Change from Baseline in PASI Total Score, Mean (100 mg QD, Week 8): −12.04
Change from Baseline in PASI Total Score, Median (100 mg QD, Week 8): −11.30
Change from Baseline in PASI Total Score, LSMean (100 mg QD, Week 8): −12.5
Change from Baseline in PASI Total Score, Mean (100 mg QD, Week 12): −13.70
Change from Baseline in PASI Total Score, Median (100 mg QD, Week 12): −13.60
Change from Baseline in PASI Total Score, LSMean (100 mg QD, Week 12): −14.0
Change from Baseline in PASI Total Score, Mean (100 mg QD, Week 16): −13.99
Change from Baseline in PASI Total Score, Median (100 mg QD, Week 16): −14.75
Change from Baseline in PASI Total Score, LSMean (100 mg QD, Week 16): −14.4
Change from Baseline in PASI Total Score, Mean (100 mg QD, Week 20): −14.57
Change from Baseline in PASI Total Score, Median (100 mg QD, Week 20): −14.10
Change from Baseline in PASI Total Score, LSMean (100 mg QD, Week 20): −15.1
Change from Baseline in PASI Total Score, Mean (100 mg QD, Week 24): −15.27
Change from Baseline in PASI Total Score, Median (100 mg QD, Week 24): −14.90
Change from Baseline in PASI Total Score, LSMean (100 mg QD, Week 24): −15.6
Change from Baseline in PASI Total Score, Mean (100 mg QD, Week 28): −16.11
Change from Baseline in PASI Total Score, Median (100 mg QD, Week 28): −15.00
Change from Baseline in PASI Total Score, LSMean (100 mg QD, Week 28): −15.8
Change from Baseline in PASI Total Score, Mean (100 mg QD, Week 32): −16.21
Change from Baseline in PASI Total Score, Median (100 mg QD, Week 32): −15.10
Change from Baseline in PASI Total Score, LSMean (100 mg QD, Week 32): −16.2
Change from Baseline in PASI Total Score, Mean (100 mg QD, Week 40): −15.95
Change from Baseline in PASI Total Score, Median (100 mg QD, Week 40): −15.00
Change from Baseline in PASI Total Score, LSMean (100 mg QD, Week 40): −15.7
Change from Baseline in PASI Total Score, Mean (100 mg QD, Week 52): −15.81
Change from Baseline in PASI Total Score, Median (100 mg QD, Week 52): −15.00
